Experimental data from US7659404B2, “Broad spectrum 2-(substituted-amino)-benzothiazole sulfonamide HIV protease inhibitors” (Tibotec Pharmaceuticals Ltd., priority 2001, dated 2010).

Assays:
[1] = system: clinically isolated HIV strain H; assay type: cell-based; details: FR=EC50(mutant strain)/EC50(HIV-1 strain LAI)
Method: (§1) HIV- or mock-infected MT4 cells were incubated for five days in the presence of various concentrations of the inhibitor. […] Cell viability is measured by measuring the concentration of MTT, a yellow, water soluble tetrazolium dye that is converted to a purple, water insoluble formazan in the mitochondria of living cells only. Upon solubilization of the resulting formazan crystals with isopropanol, the absorbance of the solution is monitored at 540 nm. The values correlate directly to the number of living cells remaining in the culture at the completion of the five day incubation. The inhibitory activity of the compound was monitored on the virus-infected cells and was expressed as EC50 and EC90. These values represent the amount of the compound required to protect 50% and 90%, respectively, of the cells from the cytopathogenic effect of the virus. The toxicity of the compound was measured on the mock-infected cells and was expressed as CC50, which represents the concentration of compound required to inhibit the growth of the cells by 50%. The selectivity index (SI) (ratio CC50/EC50) is an indication of the selectivity of the anti-HIV activity of the inhibitor.
(§2) Because of the increasing emergence of drug resistant HIV strains, the present compounds were tested for their potency against clinically isolated HIV strains harboring several mutations.
(§3) As a measure of the broad spectrum activity of the present compounds, the fold resistance (FR) defined as FR=EC50(mutant strain)/EC50(HIV-1 strain LAI).

[2] = system: clinically isolated HIV strain T; assay type: cell-based; details: FR=EC50(mutant strain)/EC50(HIV-1 strain LAI)
Method: as §1, §2, §3

[3] = system: clinically isolated HIV strain I; assay type: cell-based; details: FR=EC50(mutant strain)/EC50(HIV-1 strain LAI)
Method: as §1, §2, §3

[4] = system: clinically isolated HIV strain J; assay type: cell-based; details: FR=EC50(mutant strain)/EC50(HIV-1 strain LAI)
Method: as §1, §2, §3

[5] = system: clinically isolated HIV strain O; assay type: cell-based; details: FR=EC50(mutant strain)/EC50(HIV-1 strain LAI)
Method: as §1, §2, §3

virus strain F (R13025) = test: microbe, parasite or virus in culture; assay type: cell-based, HIV; details: for fold resistance (FR), strain F: FR=EC50(mutant strain)/EC50(HIV-1 strain LAI); for EC50: Human immunodeficiency virus 1, MT4, read-out: HIV-AVE-MT4-MTT-R13025-2-002 pEC50, virus strain F (R13025), MT4 cells, MTT (converted); for HIV-AVE-MT4-MTT-R13025-2-002 pEC50: virus strain F (R13025), MT4 cells
Method: as §1, §2, §3

virus strain S (R13080) = test: microbe, parasite or virus in culture; assay type: cell-based, HIV; details: for fold resistance (FR), strain S: FR=EC50(mutant strain)/EC50(HIV-1 strain LAI); for EC50: Human immunodeficiency virus 1, MT4, read-out: HIV-AVE-MT4-MTT-R13080-2-002 pEC50, virus strain S (R13080), MT4 cells, MTT (converted); for HIV-AVE-MT4-MTT-R13080-2-002 pEC50: virus strain S (R13080), MT4 cells
Method: as §1, §2, §3

wild type virus (IIIB) = test: HIV-AVE-MT4-MTT cellular assay, wild type virus (IIIB); assay type: cell-based; details: MT4 cells, MTT; for EC50: Human immunodeficiency virus 1, IIIB, MT4, wild type virus (IIIB), read-out: HIV-AVE-MT4-MTT-IIIB-2-002 pEC50 (converted); for HIV-AVE-MT4-MTT-IIIB-2-002 pEC50: wild type virus (IIIB)
Method: HIV- or mock-infected MT4 cells were incubated for five days in the presence of various concentrations of the inhibitor. At the end of the incubation period, all HIV-infected cells have been killed by the replicating virus in the control cultures in the absence of any inhibitor. Cell viability is measured by measuring the concentration of MTT, a yellow, water soluble tetrazolium dye that is converted to a purple, water insoluble formazan in the mitochondria of living cells only. Upon solubilization of the resulting formazan crystals with isopropanol, the absorbance of the solution is monitored at 540 nm. The values correlate directly to the number of living cells remaining in the culture at the completion of the five day incubation. The inhibitory activity of the compound was monitored on the virus-infected cells and was expressed as EC50 and EC90. These values represent the amount of the compound required to protect 50% and 90%, respectively, of the cells from the cytopathogenic effect of the virus. The toxicity of the compound was measured on the mock-infected cells and was expressed as CC50, which represents the concentration of compound required to inhibit the growth of the cells by 50%. The selectivity index (SI) (ratio CC50/EC50) is an indication of the selectivity of the anti-HIV activity of the inhibitor.

| SMILES | fold resistance (FR), strain H [1] | fold resistance (FR), strain T [2] | fold resistance (FR), strain I [3] | fold resistance (FR), strain J [4] | fold resistance (FR), strain O [5] | fold resistance (FR), strain F (virus strain F (R13025)) | fold resistance (FR), strain S (virus strain S (R13080)) | EC50 (wild type virus (IIIB)) | EC50 (virus strain F (R13025)) | EC50 (virus strain S (R13080)) | HIV-AVE-MT4-MTT-IIIB-2-002 pEC50 (wild type virus (IIIB)) | HIV-AVE-MT4-MTT-R13025-2-002 pEC50 (virus strain F (R13025)) | HIV-AVE-MT4-MTT-R13080-2-002 pEC50 (virus strain S (R13080)) |
| --- | --- | --- | --- | --- | --- | --- | --- | --- | --- | --- | --- | --- | --- |
| CC(C)CN(CC(O)C(Cc1ccccc1)NC(=O)OC1COC2OCCC12)S(=O)(=O)c1ccc2nc(NC(=O)CN3CCNCC3)sc2c1 (mixture of isomers) [Compound 5] | 0.6 | 2.6 | 0.6 | 0.3 | 0.4 | 0.5 | 0.6 | – | – | – | – | – | – |
| COC(=O)CNc1nc2ccc(S(=O)(=O)N(CC(C)C)CC(O)C(Cc3ccccc3)NC(=O)OC3COC4OCCC34)cc2s1 (mixture of isomers) [Compound 6] | 7.7 | 104.3 | 5.3 | 5.6 | 4.7 | 24.0 | 30.7 | – | – | – | – | – | – |
| CC(C)CN(C[C@@H](O)[C@H](Cc1ccccc1)NC(=O)O[C@H]1CO[C@H]2OCC[C@H]21)S(=O)(=O)c1ccc2nc(NC(=O)CN3CCNCC3)sc2c1 [Compound 17] | 0.8 | 1.0 | 0.7 | 0.2 | 0.3 | 0.3 | 0.6 | – | – | – | – | – | – |
| CC(C)CN(C[C@@H](O)[C@H](Cc1ccccc1)NC(=O)O[C@H]1CO[C@H]2OCC[C@H]21)S(=O)(=O)c1ccc2nc(NCCN(C)C(=O)OC(C)(C)C)sc2c1 [Compound 21] | 4.8 | 380.0 | 3.7 | 3.3 | 3.4 | 16.6 | 38.6 | – | – | – | – | – | – |
| CC(C)CN(C[C@@H](O)[C@H](Cc1ccccc1)NC(=O)O[C@H]1CO[C@H]2OCC[C@H]21)S(=O)(=O)c1ccc2nc(NCCCN(C)C)sc2c1 [Compound 22] | 0.4 | 6.0 | 0.6 | 0.4 | 0.4 | 0.3 | 1.4 | – | – | – | – | – | – |
| CNCCNc1nc2ccc(S(=O)(=O)N(CC(C)C)C[C@@H](O)[C@H](Cc3ccccc3)NC(=O)O[C@H]3CO[C@H]4OCC[C@H]43)cc2s1 [Compound 23] | 1.2 | 1.2 | 1.0 | 1.0 | 0.9 | 1.1 | 1.1 | – | – | – | – | – | – |
| CCOC(=O)Nc1nc2ccc(S(=O)(=O)N(CC(C)C)C[C@@H](O)[C@H](Cc3ccccc3)NC(=O)OCc3cncs3)cc2s1 [Compound 170] | – | – | – | – | – | – | – | 7.59 nM | 17.4 nM | 162 nM | – | – | – |
| CC(C)COC(=O)Nc1nc2ccc(S(=O)(=O)N(CC(C)C)C[C@@H](O)[C@H](Cc3ccccc3)NC(=O)OCc3cncs3)cc2s1 [Compound 171] | – | – | – | – | – | – | – | 51.3 nM | 186 nM | 851 nM | – | – | – |
| CC(C)CN(C[C@@H](O)[C@H](Cc1ccccc1)NC(=O)OCc1cncs1)S(=O)(=O)c1ccc2nc(NC(=O)c3ccno3)sc2c1 [Compound 172] | – | – | – | – | – | – | – | 42.7 nM | 245 nM | 813 nM | – | – | – |
| CC(C)CN(C[C@@H](O)[C@H](Cc1ccccc1)NC(=O)OCc1cncs1)S(=O)(=O)c1ccc2nc(N(C)C(=O)CN3CCN(C)CC3)sc2c1 [Compound 173] | – | – | – | – | – | – | – | – | – | – | 8.25 | 7.52 | 6.81 |
| CC(C)CN(C[C@@H](O)[C@H](Cc1ccccc1)NC(=O)OCc1cncs1)S(=O)(=O)c1ccc2nc(N(C)C(=O)CN3CCOCC3)sc2c1 [Compound 174] | – | – | – | – | – | – | – | – | – | – | 8.04 | 6.88 | 6.18 |
| CC(C)CN(C[C@@H](O)[C@H](Cc1ccccc1)NC(=O)OCc1cncs1)S(=O)(=O)c1ccc2nc(N(C)C(=O)CN(C)CCCN3CCCC3)sc2c1 [Compound 175] | – | – | – | – | – | – | – | – | – | – | 7.3 | 6.03 | 5.5 |
